Experiments:
[1] = Cytotoxicity against human RXF393 cells assessed as cell growth at 10^-5 M after 24 hrs by SRB assay; format: functional; conditions: RXF 393, 24 h, read-out: Activity
[2] = Cytotoxicity against human UACC257 cells assessed as cell growth at 10^-7 M after 24 hrs by SRB assay; format: functional; conditions: UACC-257, 24 h, read-out: Activity
[3] = Cytotoxicity against human HL-60(TB) cells after 24 hrs by SRB assay; format: functional; conditions: HL-60, 24 h
[4] = Cytotoxicity against human MOLT4 cells assessed as cell growth at 10^-5 M after 24 hrs by SRB assay; format: functional; conditions: MOLT-4, 24 h, read-out: Activity
[5] = Cytotoxicity against human HOP62 cells assessed as cell growth at 10^-4 M after 24 hrs by SRB assay; format: functional; conditions: HOP-62, 24 h, read-out: Activity
NCI-H226 = assay: Cytotoxicity against human NCI-H226 cells assessed as cell growth at 10^-6 M after 24 hrs by SRB assay; format: functional; conditions: NCI-H226, 24 h, read-out: Activity
[6] = Cytotoxicity against human OVCAR4 cells assessed as cell growth at 10^-8 M after 24 hrs by SRB assay; format: functional; conditions: OVCAR-4, 24 h, read-out: Activity
[7] = Cytotoxicity against human TK10 cells assessed as cell growth at 10^-4 M after 24 hrs by SRB assay; format: functional; conditions: TK-10, 24 h, read-out: Activity
NCI-H522 = assay: Cytotoxicity against human NCI-H522 cells assessed as cell growth at 10^-8 M after 24 hrs by SRB assay; format: functional; conditions: NCI-H522, 24 h, read-out: Activity
NCI-H322M = assay: Cytotoxicity against human NCI-H322M cells assessed as cell growth at 10^-8 M after 24 hrs by SRB assay; format: functional; conditions: read-out: Activity
EKVX = assay: Cytotoxicity against human EKVX cells assessed as cell growth at 10^-6 M after 24 hrs by SRB assay; format: functional; conditions: read-out: Activity
[8] = Cytotoxicity against human BT549 cells assessed as cell growth at 10^-7 M after 24 hrs by SRB assay; format: functional; conditions: BT-549, 24 h, read-out: Activity
KM12 [9] = assay: Cytotoxicity against human KM12 cells assessed as cell growth at 10^-8 M after 24 hrs by SRB assay; format: functional; conditions: KM12, 24 h, read-out: Activity
[10] = Cytotoxicity against human HOP62 cells assessed as cell growth at 10^-8 M after 24 hrs by SRB assay; format: functional; conditions: HOP-62, 24 h, read-out: Activity
ACHN = assay: Cytotoxicity against human ACHN cells assessed as cell growth at 10^-4 M after 24 hrs by SRB assay; format: functional; conditions: read-out: Activity
[11] = Cytotoxicity against human SNB75 cells after 24 hrs by SRB assay; format: functional, cell-based; conditions: SNB-75, 24 h
[12] = Cytotoxicity against human Hs 578T cells assessed as cell growth at 10^-6 M after 24 hrs by SRB assay; format: functional; conditions: read-out: Activity
[13] = Cytotoxicity against human SNB75 cells assessed as cell growth at 10^-4 M after 24 hrs by SRB assay; format: functional; conditions: SNB-75, 24 h, read-out: Activity
[14] = Cytotoxicity against human OVCAR8 cells assessed as cell growth at 10^-4 M after 24 hrs by SRB assay; format: functional; conditions: OVCAR-8, 24 h, read-out: Activity
[15] = Cytotoxicity against human HCC2998 cells assessed as cell growth at 10^-4 M after 24 hrs by SRB assay; format: functional; conditions: HCC 2998, 24 h, read-out: Activity
[16] = Cytotoxicity against human TK10 cells assessed as cell growth at 10^-7 M after 24 hrs by SRB assay; format: functional; conditions: TK-10, 24 h, read-out: Activity
[17] = Cytotoxicity against human SF295 cells assessed as cell growth at 10^-7 M after 24 hrs by SRB assay; format: functional; conditions: SF-295, 24 h, read-out: Activity
[18] = Cytotoxicity against human SKOV3 cells after 24 hrs by SRB assay; format: functional; conditions: SK-OV-3, 24 h
CCRF-CEM = assay: Cytotoxicity against human CCRF-CEM cells after 24 hrs by SRB assay; format: functional
[19] = Cytotoxicity against human UACC257 cells assessed as cell growth at 10^-4 M after 24 hrs by SRB assay; format: functional; conditions: UACC-257, 24 h, read-out: Activity
[20] = Cytotoxicity against human SF268 cells assessed as cell growth at 10^-7 M after 24 hrs by SRB assay; format: functional; conditions: SF-268, 24 h, read-out: Activity
[21] = Cytotoxicity against human SF539 cells assessed as cell growth at 10^-8 M after 24 hrs by SRB assay; format: functional; conditions: SF-539, 24 h, read-out: Activity
MDA-MB-435 = assay: Cytotoxicity against human MDA-MB-435 cells assessed as cell growth at 10^-4 M after 24 hrs by SRB assay; format: functional; conditions: MDA-MB-435, 24 h, read-out: Activity
[22] = Cytotoxicity against human RPMI8226 cells assessed as cell growth at 10^-6 M after 24 hrs by SRB assay; format: functional; conditions: RPMI-8226, 24 h, read-out: Activity
[23] = Cytotoxicity against human OVCAR4 cells assessed as cell growth at 10^-7 M after 24 hrs by SRB assay; format: functional; conditions: OVCAR-4, 24 h, read-out: Activity
[24] = Cytotoxicity against human OVCAR8 cells after 24 hrs by SRB assay; format: functional; conditions: OVCAR-8, 24 h
KM12 [25] = assay: Cytotoxicity against human KM12 cells assessed as cell growth at 10^-5 M after 24 hrs by SRB assay; format: functional; conditions: KM12, 24 h, read-out: Activity
[26] = Cytotoxicity against human HCT116 cells assessed as cell growth at 10^-8 M after 24 hrs by SRB assay; format: functional; conditions: HCT-116, 24 h, read-out: Activity
[27] = Cytotoxicity against human TK10 cells after 24 hrs by SRB assay; format: functional; conditions: TK-10, 24 h
[28] = Cytotoxicity against human OVCAR8 cells assessed as growth inhibition at 10 uM after 24 hrs by SRB assay; format: functional; conditions: OVCAR-8, 24 h, read-out: GI
[29] = read-out: LC50 (the source's name)
[30] = read-out: pLC50 (the source's name) (converted)

Work on O=C(Nc1cc(-c2cccnc2)nc(NCCCN2CCOCC2)n1)c1cc(Br)cc(C(F)(F)F)c1 yielded a growth at 10 µM [1] of -73%, a growth at 0.1 µM [2] of 100% and a GI50 ([3]; read-out: GI50) of 2.15 µM. The CC50 [3, 29] was 90.1 µM, the TGI ([3]; read-out: TGI) was 5.86 µM and the GI50 ([3]; read-out: pGI50 (converted)) was 2.14 µM. The CC50 [3, 30] was 89.1 µM, the TGI ([3]; read-out: pTGI (converted)) was 5.89 µM and the growth at 10 µM [4] was 9%. The growth at 100 µM [5] was -97%, the growth at 1 µM (NCI-H226) was 84% and the growth at 0.01 µM [6] was 95%. For the same compound, the growth at 100 µM [7] was -98%, the growth at 0.01 µM (NCI-H522) was 86% and the growth at 0.01 µM (NCI-H322M) was 98%. The growth at 1 µM (EKVX) was 76%, the growth at 0.1 µM [8] was 97% and the growth at 0.01 µM (KM12 [9]) was 99%. It also gave a growth at 0.01 µM [10] of 94%, a growth at 100 µM (ACHN) of -79% and an IC50 [11] of 1.52 µM. It also gave a GI50 ([11]; read-out: GI50) of 1.52 µM, a CC50 [11, 29] of 8.46 µM and a TGI ([11]; read-out: TGI) of 3.59 µM. For the same compound, the GI50 ([11]; read-out: pGI50 (converted)) was 1.51 µM, the CC50 [11, 30] was 8.51 µM and the TGI ([11]; read-out: pTGI (converted)) was 3.55 µM. It also gave a growth at 1 µM [12] of 94%, a growth at 100 µM [13] of -99% and a growth at 100 µM [14] of -79%. It also gave a growth at 100 µM [15] of -97%, a growth at 0.1 µM [16] of 91% and a growth at 0.1 µM [17] of 91%. It also gave a GI50 ([18]; read-out: GI50) of 7.26 µM, a CC50 [18, 29] of 44.9 µM and a TGI ([18]; read-out: TGI) of 19.9 µM. It also gave a GI50 ([18]; read-out: pGI50 (converted)) of 7.24 µM, a CC50 [18, 30] of 44.7 µM and a TGI ([18]; read-out: pTGI (converted)) of 20 µM. It also gave a GI50 (CCRF-CEM; read-out: GI50) of 3.54 µM, a CC50 (CCRF-CEM; [29]) of 93.4 µM and a TGI (CCRF-CEM; read-out: TGI) of 12.9 µM. For the same compound, the GI50 (CCRF-CEM; read-out: pGI50 (converted)) was 3.55 µM, the CC50 (CCRF-CEM; [30]) was 93.3 µM and the TGI (CCRF-CEM; read-out: pTGI (converted)) was 12.9 µM. It also gave a growth at 100 µM [19] of -93%, a growth at 0.1 µM [20] of 94% and a growth at 0.01 µM [21] of 95%. The growth at 100 µM (MDA-MB-435) was -100%, the growth at 1 µM [22] was 101% and the growth at 0.1 µM [23] was 90%. The GI50 ([24]; read-out: GI50) was 2.98 µM, the CC50 [24, 29] was 39.4 µM and the TGI ([24]; read-out: TGI) was 8.59 µM. It also gave a GI50 ([24]; read-out: pGI50 (converted)) of 2.95 µM, a CC50 [24, 30] of 39.8 µM and a TGI ([24]; read-out: pTGI (converted)) of 8.51 µM. For the same compound, the growth at 10 µM (KM12 [25]) was 14%, the growth at 0.01 µM [26] was 102% and the GI50 ([27]; read-out: GI50) was 5.07 µM. It also gave a CC50 [27, 29] of 43.3 µM, a TGI ([27]; read-out: TGI) of 18.1 µM and a GI50 ([27]; read-out: pGI50 (converted)) of 5.13 µM. The CC50 [27, 30] was 43.7 µM and the TGI ([27]; read-out: pTGI (converted)) was 18.2 µM.
In the case of COCCCNc1nc(NC(=O)c2cc(OC)cc(OC)c2)cc(-c2cccnc2)n1, the inhibition of growth at 10 µM [28] is reported as 20.7%.

Source: ChEMBL document CHEMBL3774345, “Synthesis of new diarylamides with pyrimidinyl pyridine scaffold and evaluation of their anti-proliferative effect on cancer cell lines” (Bioorg Med Chem Lett, 2016)
